Values joined by “and” are separate entries in the source; they are usually repeats but may differ in a detail not shown here. Equal values may be shown once. Active and inactive are the calls of the source.
How the values were obtained:
[1] = target: T1, Rac GTPase-activating protein 1 (Homo sapiens, UniProt Q9H0H5); test: MgcRacGAP GTPase-activating activity inhibitors, confirmation, biochemical, ADP Hunter fluorescence, primary and confirmatory (AID 624330); assay type: functional
T1 sequence (Q9H0H5 whole entry): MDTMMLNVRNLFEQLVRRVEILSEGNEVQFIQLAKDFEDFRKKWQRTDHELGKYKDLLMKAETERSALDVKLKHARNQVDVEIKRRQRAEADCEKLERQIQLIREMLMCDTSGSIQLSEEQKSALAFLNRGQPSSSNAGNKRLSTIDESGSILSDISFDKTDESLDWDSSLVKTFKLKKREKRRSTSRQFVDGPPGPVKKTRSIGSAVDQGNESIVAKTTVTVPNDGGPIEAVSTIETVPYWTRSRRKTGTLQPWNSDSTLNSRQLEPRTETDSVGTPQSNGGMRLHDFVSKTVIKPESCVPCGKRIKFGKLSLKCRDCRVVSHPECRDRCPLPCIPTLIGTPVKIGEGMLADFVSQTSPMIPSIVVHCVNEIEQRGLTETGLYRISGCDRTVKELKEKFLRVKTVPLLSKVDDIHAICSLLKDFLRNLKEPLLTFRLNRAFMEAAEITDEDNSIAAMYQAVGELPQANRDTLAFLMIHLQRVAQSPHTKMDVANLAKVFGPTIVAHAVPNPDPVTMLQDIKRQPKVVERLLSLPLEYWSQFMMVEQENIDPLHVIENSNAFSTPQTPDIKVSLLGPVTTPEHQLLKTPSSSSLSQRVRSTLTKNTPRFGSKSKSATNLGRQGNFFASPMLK

[2] = target: T2, Cytochrome P450 1A2 (Homo sapiens, UniProt P05177);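 note: PubChem cytochrome P450 panel assay, CYP1A2 panel member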
T2 sequence (P05177 whole entry): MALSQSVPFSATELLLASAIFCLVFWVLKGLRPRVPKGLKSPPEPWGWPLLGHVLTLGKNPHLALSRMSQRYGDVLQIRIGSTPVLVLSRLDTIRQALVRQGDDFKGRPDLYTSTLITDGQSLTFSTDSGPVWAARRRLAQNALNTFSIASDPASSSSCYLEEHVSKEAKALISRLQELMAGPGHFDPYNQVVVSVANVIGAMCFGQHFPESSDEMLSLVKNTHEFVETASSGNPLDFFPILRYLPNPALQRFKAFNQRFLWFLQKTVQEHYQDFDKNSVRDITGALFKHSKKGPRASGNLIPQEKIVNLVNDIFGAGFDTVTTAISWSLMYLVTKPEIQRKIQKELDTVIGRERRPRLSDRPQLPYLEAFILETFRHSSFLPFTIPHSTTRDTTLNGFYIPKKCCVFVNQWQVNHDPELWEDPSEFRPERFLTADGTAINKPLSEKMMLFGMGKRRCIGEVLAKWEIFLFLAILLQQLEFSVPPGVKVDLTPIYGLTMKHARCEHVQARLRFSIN

[3] = target: Cytochrome P450 2C9 (Homo sapiens, UniProt P11712)
Chain of Cytochrome P450 2C9 (P11712 whole entry): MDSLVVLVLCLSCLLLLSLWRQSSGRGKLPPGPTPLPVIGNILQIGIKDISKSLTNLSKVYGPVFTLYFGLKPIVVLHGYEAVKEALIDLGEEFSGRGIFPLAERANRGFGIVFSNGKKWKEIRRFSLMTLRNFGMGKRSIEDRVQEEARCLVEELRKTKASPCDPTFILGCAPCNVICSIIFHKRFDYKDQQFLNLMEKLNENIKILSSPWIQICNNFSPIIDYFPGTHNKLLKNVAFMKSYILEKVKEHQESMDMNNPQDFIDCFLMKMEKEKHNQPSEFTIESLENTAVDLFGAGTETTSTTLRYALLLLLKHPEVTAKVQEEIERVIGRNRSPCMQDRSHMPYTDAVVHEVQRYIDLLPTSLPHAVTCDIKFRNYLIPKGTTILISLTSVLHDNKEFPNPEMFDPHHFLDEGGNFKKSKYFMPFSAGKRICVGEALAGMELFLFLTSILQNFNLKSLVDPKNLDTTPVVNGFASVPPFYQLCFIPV

[4] = target: Cytochrome P450 3A4 (Homo sapiens, UniProt P08684);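 note: CYP3A4 tested as one member of a cytochrome P450 panel screen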
Chain of Cytochrome P450 3A4 (P08684 whole entry): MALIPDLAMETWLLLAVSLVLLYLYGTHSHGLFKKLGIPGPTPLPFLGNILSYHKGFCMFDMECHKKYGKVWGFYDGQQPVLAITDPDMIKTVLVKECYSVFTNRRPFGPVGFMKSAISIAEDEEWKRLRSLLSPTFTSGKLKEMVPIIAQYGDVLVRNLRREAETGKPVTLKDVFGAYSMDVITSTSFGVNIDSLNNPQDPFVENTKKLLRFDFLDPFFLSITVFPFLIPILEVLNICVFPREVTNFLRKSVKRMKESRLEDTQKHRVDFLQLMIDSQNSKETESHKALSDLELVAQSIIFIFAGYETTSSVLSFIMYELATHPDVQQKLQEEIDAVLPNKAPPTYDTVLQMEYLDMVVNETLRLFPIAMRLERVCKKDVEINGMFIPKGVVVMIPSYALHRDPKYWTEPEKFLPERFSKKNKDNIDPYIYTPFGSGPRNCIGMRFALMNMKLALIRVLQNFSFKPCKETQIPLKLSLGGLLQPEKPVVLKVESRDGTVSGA

[5] = target: Cytochrome P450 2C19 (Homo sapiens, UniProt P33261); test: Cytochrome panel assay with activity outcomes. Panel member name: p450-cyp2c19 Compounds with AC50 equal or less than 10 uM are considered active; assay type: functional
Chain of Cytochrome P450 2C19 (P33261 whole entry): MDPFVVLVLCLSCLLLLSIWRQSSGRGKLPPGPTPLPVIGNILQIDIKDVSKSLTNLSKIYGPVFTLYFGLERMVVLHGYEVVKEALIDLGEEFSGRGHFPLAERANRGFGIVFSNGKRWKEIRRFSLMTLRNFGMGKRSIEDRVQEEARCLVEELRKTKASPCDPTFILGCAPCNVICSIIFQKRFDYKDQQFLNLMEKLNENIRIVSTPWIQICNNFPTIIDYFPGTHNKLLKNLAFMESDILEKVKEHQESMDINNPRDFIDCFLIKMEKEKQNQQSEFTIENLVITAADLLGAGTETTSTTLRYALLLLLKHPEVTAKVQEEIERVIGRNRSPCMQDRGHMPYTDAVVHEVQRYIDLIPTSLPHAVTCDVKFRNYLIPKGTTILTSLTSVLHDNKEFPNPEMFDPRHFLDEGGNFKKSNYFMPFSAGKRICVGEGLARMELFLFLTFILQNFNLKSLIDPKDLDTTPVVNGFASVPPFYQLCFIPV

[6] = test system: Streptococcus sp. 'group A'; test: growth inhibition of control SK(-) GAS strain, dose response, counter-screen for streptokinase expression inhibitor project, luminescence, kanamycin, BacTiterGlo, confirmation (AID 1900); assay type: functional, organism-based
[7] = target: T3, Streptokinase A (Streptococcus pyogenes serotype M1, UniProt P10520); test: S. pyogenes streptokinase expression inhibitors, potency, dose response, plasminogen activation absorbance, OD405 (AID 1914); assay type: functional, Streptococcus pyogenes M1 GAS;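 note: secreted streptokinase activity via plasminogen activation per viability signal from cell pellet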
T3 sequence (P10520 whole entry): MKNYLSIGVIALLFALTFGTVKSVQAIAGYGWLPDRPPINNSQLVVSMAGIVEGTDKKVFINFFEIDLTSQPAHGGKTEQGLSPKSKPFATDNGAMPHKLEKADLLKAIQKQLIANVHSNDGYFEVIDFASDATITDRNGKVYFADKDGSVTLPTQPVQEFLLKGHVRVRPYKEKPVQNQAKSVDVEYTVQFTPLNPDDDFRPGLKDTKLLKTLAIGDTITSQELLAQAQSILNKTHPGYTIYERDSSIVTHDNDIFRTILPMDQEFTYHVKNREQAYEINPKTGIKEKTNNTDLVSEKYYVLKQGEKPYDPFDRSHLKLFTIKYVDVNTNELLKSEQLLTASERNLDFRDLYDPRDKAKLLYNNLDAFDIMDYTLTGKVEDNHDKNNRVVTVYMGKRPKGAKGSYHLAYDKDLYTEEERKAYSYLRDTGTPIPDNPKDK

[8] = test system: Streptococcus; test: Group A Streptococcus viability loss, dose response, counter-screen for streptokinase expression inhibitor project, luminescence, BacTiterGlo (AID 1915); assay type: functional, organism-based;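 note: potency for reduction of bacterial viability or growth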
[9] = HEp-2 cell cytotoxicity, dose response, cytotoxicity control for RSV inhibitor project, HTS (AID 2410); assay type: functional; details: human respiratory syncytial virus

CCOc1cc(CNc2ccc(N3CCOCC3)cc2)cc(Br)c1OCC
IC50 [1]: 19.6 µM (active)

Cc1ccc2c(c1)/C(=N/OC(=O)c1ccc(F)cc1)CCS2
AC50 [2]: 0.501 µM (inconclusive)

O=C(c1cccc(Cl)c1)N1CCN(C2CCCCC2)CC1
IC50 [1]: 300 µM (active)

O=C(CSCc1ccc(Cl)cc1)Nc1nccs1
AC50 [3]: 14.1 µM (inconclusive)
AC50 [4]: 3.55 µM (inconclusive)

Cc1ccc(Nc2nnc(S)s2)cc1F
IC50 [1]: 54.5 µM (active)

COc1ccc(CNC(=O)c2cnc(C)cn2)cc1
AC50 [2]: 12.6 µM (inconclusive)

CCCCc1ccc(-c2nc(NC(=O)C3C4CCC(O4)C3C(=O)O)sc2C)cc1 (stereo not drawn)
AC50 [3]: 3.55 µM (inconclusive)
AC50 [4]: 14.1 µM (inconclusive)

C[C@@H](COc1ccccc1)N(CCCl)Cc1ccccc1
AC50 [3]: 31.6 µM (inconclusive) and 12.6 µM (inconclusive)
AC50 [2]: 12.6 µM (inconclusive)

COc1cccc(C(C#N)N2N=C(C)CC2(C)C)c1O (stereo not drawn)
AC50 ([5]; read-out: AC50): 2.24 µM (inconclusive)

CN(C)/C(CN1CCOCC1)=C1\N=C(c2ccccc2)OC1=O
AC50 ([5]; read-out: AC50): 7.94 µM (inconclusive)

O=C1CSc2ccc(C(=O)NCCC3=CCCCC3)cc2N1
AC50 ([5]; read-out: AC50): 7.94 µM (inconclusive)
AC50 [4]: 12.6 µM (inconclusive)

C/C(=C(/CCO)SSC[C@@H]1CCCO1)N(C=O)Cc1cnc(C)nc1N
AC50 [4]: 10 µM (inconclusive)

COc1ccccc1COCC(O)CNCC1(N2CCCCC2)CCCCC1 (stereo not drawn)
IC50 [1]: 121 µM (active)

Cc1sc2ncnc(Nc3ccc(O)cc3)c2c1C
IC50 [1]: 39.4 µM (active)

O=c1c([N+](=O)[O-])cccn1Cc1ccc(F)cc1Cl
EC50 [6]: 3.27 µM (active)
EC50 [7]: > 150 µM (not active)
EC50 [8]: 7.88 µM (active)

Cc1ccc(S(=O)(=O)N2CCC(C(=O)O)(c3ccccc3)CC2)cc1
AC50 [5]: inconclusive

CCOc1ccc2c(c1)C(C)=CC(C)(C)N2 [E324]
AC50 [4]: 12.6 µM (inconclusive)

CCCC1(C(=O)OC)C=C2C(=C(C)C(=O)C2C)CN1 (stereo not drawn)
AC50 [4]: 39.8 µM (inconclusive)

Cc1c(C(=O)NCc2ccc3c(c2)OCO3)oc2ccc(Br)cc12
CC50 [9]: 19.1 µM (active)

CC(C)(C)C(=O)NC(c1ccc(Cl)cc1)[C@]1(C)C[C@H]1C1CCCCC1 (stereo partly drawn)
AC50 ([5]; read-out: AC50): 7.94 µM (inconclusive)

O=C(Oc1ccccc1)N1CCC2(CC1)CN(Cc1ccncc1)C2
AC50 ([5]; read-out: AC50): 20 µM (inconclusive)
AC50 [2]: 10 µM (inconclusive)
AC50 [4]: 12.6 µM (inconclusive)

C[C@@H](C(=O)NCc1ccc(S(C)(=O)=O)cc1)[C@@H]1C[C@@]1(C)[C@@H](NC(=O)OCc1ccccc1)c1ccccc1
AC50 [2]: 15.8 µM (inconclusive)

COC(=O)c1ccc(C(=O)OC)c(NC(=O)CSCc2ccc(Br)cc2)c1
AC50 ([5]; read-out: AC50): 2.24 µM (inconclusive)

CCC(C(=O)NCCCN1CCCC1=O)n1c2ccccc2c2nc(=O)cc(C)n21 (stereo not drawn)
EC50 [6]: > 150 µM (not active)
EC50 [7]: > 150 µM (not active)
EC50 [8]: > 150 µM (not active)

N=C(N)SCc1cccc2c(=O)cc(-c3ccccc3)oc12
AC50 ([5]; read-out: AC50): 3.98 µM (inconclusive)
AC50 [4]: 3.16 µM (inconclusive)

O=C(Nc1nc2ccccc2n1CCN1CCCCC1)C1CCCCC1
AC50 ([5]; read-out: AC50): 28.2 µM (inconclusive)
AC50 [4]: 17.8 µM (inconclusive)

From ChEMBL document CHEMBL1201862, “PubChem BioAssay data set” (2004)
